Experiments:
Type in all cases: cell-based
IFNα = assay: PBMC cytokine profiling assay, IFNα induction; conditions: Homo sapiens, 24 h, human PBMCs, 24 hours incubation
Procedure: (§1) Compounds were dissolved and stored in DMSO (Sigma-Aldrich, St. Louis, Mo.) at 10 mM concentration.
(§2) Cryopreserved human PBMCs isolated from healthy donors were purchased from StemCell Technologies (Vancouver, Canada). Cell culture medium used was RPMI with L-Glutamine (Mediatech, Manassas, Va.) supplemented with 10% fetal bovine serum (Hyclone, GE Healthcare, Logan, Utah) and Penicillin-Streptomycin (Mediatech). Human TNFα, IL12p40, and IFNα2a 384-well Assay capture plates, standards, buffers and processing reagents were obtained from MesoScale Discovery Technologies (MSD; Rockville, Md.).
(§3) Cryopreserved human PBMCs (1×10e8 cells/ml) were thawed at 37° C. and resuspended in 25 mL warm cell culture medium. The cells were pelleted at 200×g (Beckman Avanti J-E) for 5 min and resuspended in 20 mL of fresh culture media. Cells were counted using a Cellometer (Nexcelcom Bioscience), adjusted to 2×10e6 cells, and incubated for 2 hours in an incubator set at 37° C., 5% CO2 to recover from cryopreservation. […]
(§4) Using a Biomek FX 384 well pipetting station (Beckman), conditioned culture medium (CCM) from the assay plate was transferred to MSD capture plates customized for each cytokine. […] MSD Read Buffer diluted to 2× in deionized water and 35 μL/well was added via Biomek FX instrument. The plates were read immediately in a MSD6000 reader. […]

TNFα = assay: PBMC cytokine profiling assay, TNFα induction; conditions: Homo sapiens, 24 h, human PBMCs, 24 hours incubation
Procedure: as §1, §2, §3, §4

IL12p40 = assay: PBMC cytokine profiling assay, IL12-p40 induction; conditions: Homo sapiens, 24 h, human PBMCs, 24 hours incubation
Procedure: as §1, §2, §3, §4

human TLR8 = molecular target: T1, human TLR8 (Homo sapiens, UniProt Q9NR97); assay: HEK-Blue human TLR8 cell SEAP reporter assay (NF-κB activation); conditions: HEK-Blue human TLR8 cells, stimulation for 20 hours, Quanti Blue read at 640 nm
T1 construct: host or cells: HEK-Blue human TLR8 cells (HEK293-derived reporter line)
T1 sequence (Q9NR97 27-1041): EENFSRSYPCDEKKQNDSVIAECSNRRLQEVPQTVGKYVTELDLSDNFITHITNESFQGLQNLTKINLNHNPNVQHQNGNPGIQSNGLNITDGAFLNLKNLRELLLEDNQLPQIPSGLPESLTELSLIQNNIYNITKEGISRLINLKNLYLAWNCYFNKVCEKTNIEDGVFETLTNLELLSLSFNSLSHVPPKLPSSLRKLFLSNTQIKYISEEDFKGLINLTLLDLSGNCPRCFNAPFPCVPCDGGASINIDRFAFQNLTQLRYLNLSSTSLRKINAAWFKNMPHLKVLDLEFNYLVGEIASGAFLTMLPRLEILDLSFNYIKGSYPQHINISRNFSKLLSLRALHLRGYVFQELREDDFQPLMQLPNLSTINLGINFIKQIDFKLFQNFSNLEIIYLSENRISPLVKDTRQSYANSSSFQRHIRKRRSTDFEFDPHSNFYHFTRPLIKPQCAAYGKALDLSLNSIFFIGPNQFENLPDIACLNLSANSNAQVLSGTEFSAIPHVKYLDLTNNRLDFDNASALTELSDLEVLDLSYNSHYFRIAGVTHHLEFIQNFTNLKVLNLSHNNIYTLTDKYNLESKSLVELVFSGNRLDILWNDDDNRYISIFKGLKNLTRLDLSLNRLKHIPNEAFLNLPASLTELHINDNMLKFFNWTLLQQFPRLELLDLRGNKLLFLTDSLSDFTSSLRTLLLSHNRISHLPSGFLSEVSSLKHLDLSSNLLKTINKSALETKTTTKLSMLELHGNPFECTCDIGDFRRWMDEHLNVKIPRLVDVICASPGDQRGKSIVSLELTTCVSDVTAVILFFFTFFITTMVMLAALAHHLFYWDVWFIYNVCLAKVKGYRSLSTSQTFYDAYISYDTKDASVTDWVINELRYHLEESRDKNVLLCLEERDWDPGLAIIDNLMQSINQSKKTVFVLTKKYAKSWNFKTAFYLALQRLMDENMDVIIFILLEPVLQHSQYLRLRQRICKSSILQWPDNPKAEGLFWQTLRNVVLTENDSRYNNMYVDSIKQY
Excerpt: (§5) For TLR8 and TLR7 activity testing, HEK-Blue human TLR8 or TLR7 cells (Invivogen, San Diego, Calif., USA) are used, respectively. These cells are designed for studying the stimulation of human TLR8 or TLR7 by monitoring the activation of NF-κB. A SEAP (secreted embryonic alkaline phosphatase) reporter gene is placed under the control of the IFN-b minimal promoter fused to five NF-κB and AP-1-binding sites. Therefore the reporter expression is regulated by the NF-κB promoter upon stimulation of human TLR8 or TLR7 for 20 hours. The cell culture supernatant SEAP reporter activity was determined using Quanti Blue kit (Invivogen, San Diego, Ca, USA) at a wavelength of 640 nm, a detection medium that turns purple/blue in the presence of alkaline phosphatase. EC50 values were determined using Activity Base analysis (ID Business Solution, Limited).

human TLR7 = molecular target: T2, human TLR7 (Homo sapiens, UniProt Q9NYK1); assay: HEK-Blue human TLR7 cell SEAP reporter assay (NF-κB activation); conditions: HEK-Blue human TLR7 cells, stimulation for 20 hours, Quanti Blue read at 640 nm
T2 construct: host or cells: HEK-Blue human TLR7 cells (HEK293-derived reporter line)
T2 sequence (Q9NYK1 27-1049): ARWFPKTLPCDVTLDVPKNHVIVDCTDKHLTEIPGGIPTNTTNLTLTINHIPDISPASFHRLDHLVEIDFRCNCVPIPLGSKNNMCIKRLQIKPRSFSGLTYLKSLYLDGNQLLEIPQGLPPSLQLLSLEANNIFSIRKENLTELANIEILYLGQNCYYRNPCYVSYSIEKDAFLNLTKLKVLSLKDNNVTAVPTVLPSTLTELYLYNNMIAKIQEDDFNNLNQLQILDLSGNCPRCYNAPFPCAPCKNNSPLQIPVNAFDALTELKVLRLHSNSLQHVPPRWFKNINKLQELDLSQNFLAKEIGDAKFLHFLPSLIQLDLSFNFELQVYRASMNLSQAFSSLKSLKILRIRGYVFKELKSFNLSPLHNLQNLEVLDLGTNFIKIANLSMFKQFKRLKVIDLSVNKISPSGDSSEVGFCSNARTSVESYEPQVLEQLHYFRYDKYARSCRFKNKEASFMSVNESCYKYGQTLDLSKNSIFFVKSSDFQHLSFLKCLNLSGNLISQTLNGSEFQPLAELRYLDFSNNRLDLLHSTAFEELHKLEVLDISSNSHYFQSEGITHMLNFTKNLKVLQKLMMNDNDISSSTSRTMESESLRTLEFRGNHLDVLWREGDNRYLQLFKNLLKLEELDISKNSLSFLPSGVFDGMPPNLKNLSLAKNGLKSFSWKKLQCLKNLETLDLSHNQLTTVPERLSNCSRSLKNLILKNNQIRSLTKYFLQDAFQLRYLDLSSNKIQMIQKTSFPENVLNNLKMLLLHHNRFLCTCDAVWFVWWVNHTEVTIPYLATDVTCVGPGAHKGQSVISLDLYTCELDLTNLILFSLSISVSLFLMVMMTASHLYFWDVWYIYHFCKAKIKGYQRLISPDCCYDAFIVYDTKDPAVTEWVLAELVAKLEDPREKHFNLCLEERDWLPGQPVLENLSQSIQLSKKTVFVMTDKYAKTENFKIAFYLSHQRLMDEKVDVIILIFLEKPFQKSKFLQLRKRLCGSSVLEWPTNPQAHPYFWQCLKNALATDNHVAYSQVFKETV
Excerpt: as §5

EC50 (human TLR8)	EC50 (human TLR7)	SMILES	AC50 (IFNα)	AC50 (TNFα)	AC50 (IL12p40)
–	–	CCCC[C@@H](Nc1nc(N)nc2cccnc12)[C@H](C)O [Compound 86]	37400 nM	2900 nM	2400 nM
77 nM	1860 nM	CCCN(CCC)C(=O)C1=Cc2ccc(-c3cccnc3)cc2N=C(N)C1 [VTX-133, reference compound]	–	–	–
39 nM	3610 nM	CCCN(CCC)C(=O)C1=Cc2ccc(-c3cncnc3)cc2N=C(N)C1 [VTX-135, reference compound]	–	–	–
